Some test systems named below: HCC-2998 colon; TK-10 renal; UACC-257 melanoma; OVCAR-8 ovarian; HL-60(TB) leukemia; U251 CNS; OVCAR-3 ovarian; NCI-H226 lung; MDA-MB-231 breast.
What all share (test): inhibition of tumour cell growth, NCI panel, 48 h

For 12 compounds, TGI and GI50 results are on record in PubChem BioAssay (NCI).

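All cell lines were grown in 96-well plates and treated with compound for 48 hours. GI50 is the concentration that inhibits growth by half. TGI marks complete inhibition of growth.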

As for `COc1ccc(C(=O)Nc2ccc(S(=O)(=O)NCC(=O)O)cc2)cc1`, the TGI in the test on HCC-2998 colon, in the test on TK-10 renal, with UACC-257 melanoma, with OVCAR-8 ovarian, in the test with HL-60(TB) leukemia and in the test on U251 CNS was more than 100 µM each time. The same compound gave a TGI in the test with OVCAR-3 ovarian of more than 100 µM.
As for `O=C(c1ccccn1)c1nc(-c2ccc(Cl)c(Cl)c2)nc2ccc(Cl)cc12`, the TGI in the test on HCC-2998 colon, in the test on TK-10 renal, in the test with UACC-257 melanoma, in the test on NCI-H226 lung, in the test on OVCAR-8 ovarian and with HL-60(TB) leukemia was more than 100 µM each time. The TGI in the test on U251 CNS and with OVCAR-3 ovarian was more than 100 µM in each case.
With `O=C1OCC2=C1C(c1cccc(C(F)(F)F)c1)c1cc3c(cc1N2CCO)OCO3` (stereo unspecified), the GI50 in the test with HCC-2998 colon is 1.55 µM; with TK-10 renal, 10.1 µM; in the test on UACC-257 melanoma, more than 50 µM; in the test with NCI-H226 lung, 21.7 µM; in the test on MDA-MB-231 breast it was 1.77 µM; with OVCAR-8 ovarian, 2.51 µM. In addition, the GI50 in the test with U251 CNS was 1.82 µM; in the test on OVCAR-3 ovarian, 1.32 µM. The TGI with HCC-2998 colon is 17 µM; in the test with TK-10 renal, more than 50 µM; in the test with UACC-257 melanoma, more than 50 µM; in the test with NCI-H226 lung it was more than 50 µM; in the test with MDA-MB-231 breast, more than 50 µM; with OVCAR-8 ovarian, more than 50 µM. In addition, the TGI in the test on U251 CNS and in the test on OVCAR-3 ovarian was more than 50 µM throughout.
For `Cc1cc2c(=O)cc(-c3ccc(C(F)(F)F)cc3)oc2c(C(=O)O)c1C`, the TGI in the test with TK-10 renal, in the test on UACC-257 melanoma, with NCI-H226 lung, with OVCAR-8 ovarian, with U251 CNS and in the test on OVCAR-3 ovarian was more than 100 µM throughout.
With `CN(C)CCNC(=O)c1cccc2ccc(-c3cccnc3)nc12`, the TGI is 18 µM in the test on HCC-2998 colon; 7.05 µM in the test on TK-10 renal; 15 µM with UACC-257 melanoma; 22.2 µM with NCI-H226 lung; more than 100 µM with OVCAR-8 ovarian; more than 100 µM with HL-60(TB) leukemia. The TGI in the test on U251 CNS turned out to be 19.3 µM; with OVCAR-3 ovarian, 36.9 µM.
Turning to `CCCCNC(=O)OCC(COc1ccccc1OC)OC(=O)NCCCC` (stereo unspecified), the TGI with HCC-2998 colon, in the test with TK-10 renal, in the test with UACC-257 melanoma, with NCI-H226 lung, in the test with OVCAR-8 ovarian and in the test on HL-60(TB) leukemia was more than 100 µM in each case. Also, the TGI in the test on U251 CNS and with OVCAR-3 ovarian was more than 100 µM each time.
On to `COc1ccc(N2CCN(CN3CCN(c4ccc(OC)cc4)C3)C2)cc1`, for which the GI50 is 50.4 µM in the test with HCC-2998 colon; more than 100 µM in the test on TK-10 renal; more than 100 µM in the test with UACC-257 melanoma; more than 100 µM with NCI-H226 lung; more than 100 µM in the test with MDA-MB-231 breast; more than 100 µM with OVCAR-8 ovarian. The GI50 in the test on U251 CNS and in the test with OVCAR-3 ovarian was more than 100 µM each time. In addition, the TGI with HCC-2998 colon, in the test on TK-10 renal, in the test with UACC-257 melanoma, with NCI-H226 lung, in the test on MDA-MB-231 breast and in the test with OVCAR-8 ovarian was more than 100 µM each time. In addition, the TGI in the test with U251 CNS and with OVCAR-3 ovarian was more than 100 µM throughout.
As to `CN(C)C(=S)/N=c1\ssc(=S)n1-c1ccccc1`, the TGI amounted to 46.3 µM in the test on HCC-2998 colon; 31.4 µM in the test on TK-10 renal; 29.6 µM with UACC-257 melanoma; 26.9 µM with NCI-H226 lung; 28.5 µM in the test on OVCAR-8 ovarian; 44.4 µM in the test on HL-60(TB) leukemia. For the same compound, the TGI in the test with U251 CNS worked out at 30.2 µM.
With `COc1cc(-c2nc(-c3nnc(-c4ccc(F)c(Cl)c4)o3)c3ccccn23)cc(OC)c1OC`, the GI50 in the test with HCC-2998 colon is 5.64 µM; with TK-10 renal, 2.4 µM; in the test with NCI-H226 lung, 2.38 µM; in the test with MDA-MB-231 breast it was 2.15 µM; with OVCAR-8 ovarian, 1.69 µM; with U251 CNS, 1.86 µM. Further, in the test on OVCAR-3 ovarian, the GI50 is 2.76 µM. Also, the TGI was more than 100 µM in the test with HCC-2998 colon; 5.9 µM in the test with TK-10 renal; 6.07 µM in the test with NCI-H226 lung; 14.7 µM with MDA-MB-231 breast; 4.44 µM in the test with OVCAR-8 ovarian; 4.43 µM in the test with U251 CNS. The compound further came in with a TGI with OVCAR-3 ovarian of 8.69 µM.
`NC(=S)N/N=C1\C(=O)N(CCc2ccccc2)C(=O)C1C(=O)NCCc1ccccc1` (stereo unspecified): the TGI in the test with HCC-2998 colon, with TK-10 renal, in the test with UACC-257 melanoma, in the test on NCI-H226 lung, with OVCAR-8 ovarian and in the test on U251 CNS was more than 100 µM each time. This compound also returned a TGI in the test with OVCAR-3 ovarian of more than 100 µM.
In the case of `CSc1c(S(C)=O)[nH]c2cc(Br)cc(Br)c12` (stereo unspecified), the TGI in the test on HCC-2998 colon was 34.7 µM; in the test with TK-10 renal, 78.1 µM; with UACC-257 melanoma it was more than 100 µM; in the test on NCI-H226 lung it was 67.9 µM; with OVCAR-8 ovarian it was 61.8 µM; in the test with HL-60(TB) leukemia it was 52.3 µM. This compound also gave a TGI in the test on OVCAR-3 ovarian of 45 µM.
Take `Clc1ccccc1C1N2CCCCC2[C@@H]2c3[nH]c4ccccc4c3CCN12` (stereo partly specified): the TGI in the test with HCC-2998 colon is 36.9 µM; with TK-10 renal it was 60 µM; in the test with UACC-257 melanoma, 42.2 µM; in the test with OVCAR-8 ovarian it was 39.9 µM; in the test on HL-60(TB) leukemia it was more than 100 µM; with U251 CNS it was 31.9 µM. The compound further registered a TGI in the test on OVCAR-3 ovarian of 32.6 µM.
